Square brackets hold non-standard residues; d marks the D form. Ends that are not written are not given here. Oic = O=C(O)[C@@H]1C[C@@H]2CCCC[C@@H]2N1; Tic = O=C(O)[C@@H]1Cc2ccccc2CN1
Biological target: T1, recombinant human GzmA (hGzmA) (Homo sapiens, UniProt P12544)
T1 construct: active, mature form; purchased Enzo Life Sciences ALX-201-118-C010
T1 sequence (P12544 29-262): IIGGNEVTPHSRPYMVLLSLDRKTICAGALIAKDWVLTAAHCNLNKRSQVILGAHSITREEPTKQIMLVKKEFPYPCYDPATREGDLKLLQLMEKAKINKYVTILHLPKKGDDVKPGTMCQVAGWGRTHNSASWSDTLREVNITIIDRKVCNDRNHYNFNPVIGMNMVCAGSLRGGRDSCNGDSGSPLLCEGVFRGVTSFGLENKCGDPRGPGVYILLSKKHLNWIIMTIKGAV
Test: In-gel fluorescence labeling of recombinant active hGzmA
Format: biochemical
Details: hGzmA 100 nM, 37 °C; for Labeling of recombinant hGzmA (in-gel Cy5 fluorescence): varying probe concentrations, 2 h, SDS-PAGE
Protocol: Figure 3 GzmA ABPs covalently and competitively label active human and mouse GzmA. […] Recombinant hGzmA (100 nM) was incubated with varying concentrations of each ABP at 37 °C. B) Competitive labeling of hGzmA. Recombinant hGzmA (100 nM) was preincubated with covalent inhibitors 1 or 2 (5 μM) for 2 h, followed by labeling with ABPs 3 –5 (50 nM) for 2 h at 37 °C. Note: Pro‐form of hGzmA (the first lane) is not effectively stained by SYPRO‐Ruby. C) Structure of qABP 6. D) Quenched natures of 5 and 6. […] F) Labeling of mGzmA (1 μM) with 5 and 6 (1 μM, 24 h, 37 °C). Protein samples were analyzed by SDS‐PAGE and in‐gel fluorescence scanning for Cy5 signal and SYPRO Ruby staining. […]
C. In-gel fluorescence imaging
For recombinant enzyme labeling, working solutions of hGzmA (purchased from R&D Systems, Cat. No. 2905-SE-010 for pro-from and Enzo Life Sciences, Cat. No.: ALX-201-118-C010 for active, mature form) were prepared by diluting a 12.6 µM stock in the following assay buffer: 50 […]
mM Tris, 100 mM NaCl, 5 mM CaCl2, 0.01% (v/v) Tween-20, pH 7.5. […]
In-gel fluorescence and
SYPRO-Ruby staining images were acquired on a Typhoon FLA9500 instrument, while western blot images were acquired on an AMHERST ImageQuant 800 instrument.
Conditions for probe/inhibitor treatment for in-gel fluorescence analysis: Inhibitors and probes were incubated with active (or pro-) GzmA followed by treatment with 4X SDS reducing sample buffer. Samples were then heated to 100 °C for 5 min, brought to room temperature, and centrifuged. 20 µL of each sample was loaded onto a 15% polyacrylamide gel, which was then subjected to electrophoresis followed by the acquisition of in-gel fluorescence images. GzmA labeling was confirmed by western blotting, while protein loading was confirmed with SYPRO-Ruby staining. Incubation conditions for each figure/experiment are described below:
Conditions for Figure 3A: For labeling comparison between 3, 4, and 5, 100 nM of human GzmA was incubated with various concentrations of each probe for 2 h at 37 °C. For time-dependent labeling, 50 nM of 5 was incubated with 100 nM of human GzmA at 37 °C for the specified durations. Final reaction volume for both was 20 µL.
Conditions for Figure 3B: 100 nM of human GzmA was incubated with DMSO or 5 µM of 1 or 2 for 2 h at 37 °C in Eppendorf tubes. 0.5 µL of a 2 µM solution of 3, 4, or 5 in DMSO was then spiked into the Eppendorf tube, yielding a final probe concentration of 50 nM. The solution was incubated for another 2 h at 37 °C. Final reaction volume was 20 µL.
Conditions for Figure 3E: 100 nM of human GzmA was incubated with various concentrations of 5 or 6, respectively, for 2 h at 37 °C. Final reaction volume was 20 µL.
Conditions for Figure 3F: 1 µM of mouse GzmA was incubated with 1 µM of 5 or 6, respectively, for 24 h at 37 °C. Final reaction volume was 20 µL.
Conditions for Figure 4A: 1 mg/mL of lysates was incubated with various concentrations of 5 or 6, respectively, for 1 h at 37 °C.
Conditions for Figure 4C: Various concentrations of probes 3-6 were incubated with 1x10^6 NK-92 cells for 2 h at 37 °C in a humidified incubator. Cells were centrifuged, washed with PBS (x2) and lysed with ~40 µL of ice-cold RIPA buffer. Lysates were collected, protein concentration was measured with PIERCE BCA protein assay and samples were analyzed with in-gel fluorescence and GzmA western blotting. […]
All flow cytometry data were collected on BD LSRFortessa and FACSymphony A5 Cell Analyzers and analyzed with FlowJo software. Briefly, cells were processed according to the intended protocols for each experiment. Thereafter, cells were pelleted, fixed in the dark for 20 min at room temperature (Fixation buffer: BioLegend #420801), and pelleted again by centrifugation. Fixed cells were then resuspended in 1x intracellular staining perm wash buffer (BioLegend #421002), followed by centrifugation two times. Fixed/Permeabilized cells were then resuspended in […]

| Substance | Concentration and time dependence of labeling of active hGzmA (time course with 50 nM probe) | Labeling of recombinant hGzmA (in-gel Cy5 fluorescence) |
| --- | --- | --- |
| IGNR [compound 5] | concentration‐ and time‐dependent labeling | efficiently label recombinant human GzmA (hGzmA) at submicromolar concentrations |
| GFFR [compound 7] |  | lower labeling efficiency for both hGzmA and mGzmA compared with probes 5 and 6 |
| [Tic]G[Oic]R [compound 6] |  | efficiently (and slightly more strongly than 5) labeled |

— paper PMC12703428, “Development of Granzyme A Turn‐ON Fluorescent Activity‐Based Probes” (Chembiochem, 2025)
